“Also recorded” adds a separate entry of the source. Read-outs that look alike come from different tables or passages of the source.
Columns and labels:
[1] = Parallel Artificial Membrane Permeability Assay (PAMPA); conditions: about 100 μM, five hours, 25° C.
[2] = in vivo; conditions: male, guinea pig, iv
[3] = molecular target: MDR1 (P-gp) (Homo sapiens, UniProt P08183); experiment: MDR1-MDCK efflux assay (net flux ratio); conditions: 37° C., three hours
[4] = molecular target: CYP2C19 (Homo sapiens, UniProt P33261); experiment: Cytochrome P450 inhibition with fluorescent probe substrate
Sequence of CYP2C19 (P33261 whole entry): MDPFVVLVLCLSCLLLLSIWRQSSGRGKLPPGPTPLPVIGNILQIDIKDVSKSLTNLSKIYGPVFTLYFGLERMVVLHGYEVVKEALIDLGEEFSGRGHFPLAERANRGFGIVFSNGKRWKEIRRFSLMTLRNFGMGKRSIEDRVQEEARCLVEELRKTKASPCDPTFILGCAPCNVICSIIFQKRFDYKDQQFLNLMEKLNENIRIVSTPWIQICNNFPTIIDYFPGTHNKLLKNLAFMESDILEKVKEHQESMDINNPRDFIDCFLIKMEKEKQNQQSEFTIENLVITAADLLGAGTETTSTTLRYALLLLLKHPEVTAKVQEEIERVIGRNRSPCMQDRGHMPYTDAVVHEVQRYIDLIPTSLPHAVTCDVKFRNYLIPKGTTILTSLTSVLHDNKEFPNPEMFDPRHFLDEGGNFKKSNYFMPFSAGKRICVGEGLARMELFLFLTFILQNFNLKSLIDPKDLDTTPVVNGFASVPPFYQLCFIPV

[5] = molecular target: CYP3A4 (Homo sapiens, UniProt P08684); experiment: biochemical
Sequence of CYP3A4 (P08684 whole entry): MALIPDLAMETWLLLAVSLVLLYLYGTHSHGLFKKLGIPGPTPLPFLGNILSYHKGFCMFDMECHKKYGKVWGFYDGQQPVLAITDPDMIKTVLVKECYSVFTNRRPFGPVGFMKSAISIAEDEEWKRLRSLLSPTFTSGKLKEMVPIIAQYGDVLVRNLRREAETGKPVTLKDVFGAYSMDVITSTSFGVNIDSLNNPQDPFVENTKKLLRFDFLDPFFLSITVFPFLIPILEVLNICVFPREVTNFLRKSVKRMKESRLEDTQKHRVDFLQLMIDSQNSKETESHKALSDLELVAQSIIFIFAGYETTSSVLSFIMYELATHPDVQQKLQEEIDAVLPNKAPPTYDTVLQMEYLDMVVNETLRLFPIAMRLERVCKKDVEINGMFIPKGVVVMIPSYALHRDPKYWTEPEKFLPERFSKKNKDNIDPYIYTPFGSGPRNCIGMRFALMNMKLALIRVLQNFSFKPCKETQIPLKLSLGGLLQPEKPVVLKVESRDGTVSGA

[6] = Microsomal stability assay; conditions: microsomes
[7] = in vivo; conditions: male, guinea pig
[8] = Human plasma stability assay
[9] = molecular target: hERG channel (Homo sapiens, UniProt Q12809); experiment: hERG channel patch clamp assay
Sequence of hERG channel (Q12809 whole entry): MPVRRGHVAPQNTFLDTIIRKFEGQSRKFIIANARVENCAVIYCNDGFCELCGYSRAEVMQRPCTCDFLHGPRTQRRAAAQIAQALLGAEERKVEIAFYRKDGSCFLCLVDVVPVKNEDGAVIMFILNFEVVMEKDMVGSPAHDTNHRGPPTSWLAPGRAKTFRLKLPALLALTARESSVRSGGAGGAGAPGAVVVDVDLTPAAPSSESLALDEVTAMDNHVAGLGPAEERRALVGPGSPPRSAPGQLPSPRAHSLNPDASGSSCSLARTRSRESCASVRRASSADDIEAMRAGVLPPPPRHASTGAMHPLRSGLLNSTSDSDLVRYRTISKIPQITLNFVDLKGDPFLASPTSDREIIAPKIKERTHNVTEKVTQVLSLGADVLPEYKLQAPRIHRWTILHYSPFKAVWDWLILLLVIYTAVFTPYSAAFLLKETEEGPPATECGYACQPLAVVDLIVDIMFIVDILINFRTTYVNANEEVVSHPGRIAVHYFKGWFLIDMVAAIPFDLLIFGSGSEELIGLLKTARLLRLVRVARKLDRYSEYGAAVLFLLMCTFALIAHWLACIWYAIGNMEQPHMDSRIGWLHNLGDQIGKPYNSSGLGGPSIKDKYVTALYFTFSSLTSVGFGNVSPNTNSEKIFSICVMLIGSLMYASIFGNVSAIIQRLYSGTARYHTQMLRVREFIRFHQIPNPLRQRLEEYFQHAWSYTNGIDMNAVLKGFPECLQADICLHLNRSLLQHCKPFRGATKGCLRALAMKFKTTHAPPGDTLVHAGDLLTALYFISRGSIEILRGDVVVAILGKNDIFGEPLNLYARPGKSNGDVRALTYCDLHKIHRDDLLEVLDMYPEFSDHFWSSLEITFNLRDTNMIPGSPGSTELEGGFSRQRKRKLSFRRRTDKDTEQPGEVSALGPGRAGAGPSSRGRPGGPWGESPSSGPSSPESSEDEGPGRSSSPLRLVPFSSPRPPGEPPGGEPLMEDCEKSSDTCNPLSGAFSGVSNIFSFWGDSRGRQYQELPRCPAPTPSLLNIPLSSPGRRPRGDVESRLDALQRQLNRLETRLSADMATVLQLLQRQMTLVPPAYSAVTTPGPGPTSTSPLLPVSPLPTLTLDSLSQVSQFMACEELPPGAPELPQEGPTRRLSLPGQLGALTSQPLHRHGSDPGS

[10] = molecular target: human AChE (Homo sapiens, UniProt P22303); assay type: biochemical
Sequence of human AChE (P22303-2 with tags, fused parts or gaps limits assumed): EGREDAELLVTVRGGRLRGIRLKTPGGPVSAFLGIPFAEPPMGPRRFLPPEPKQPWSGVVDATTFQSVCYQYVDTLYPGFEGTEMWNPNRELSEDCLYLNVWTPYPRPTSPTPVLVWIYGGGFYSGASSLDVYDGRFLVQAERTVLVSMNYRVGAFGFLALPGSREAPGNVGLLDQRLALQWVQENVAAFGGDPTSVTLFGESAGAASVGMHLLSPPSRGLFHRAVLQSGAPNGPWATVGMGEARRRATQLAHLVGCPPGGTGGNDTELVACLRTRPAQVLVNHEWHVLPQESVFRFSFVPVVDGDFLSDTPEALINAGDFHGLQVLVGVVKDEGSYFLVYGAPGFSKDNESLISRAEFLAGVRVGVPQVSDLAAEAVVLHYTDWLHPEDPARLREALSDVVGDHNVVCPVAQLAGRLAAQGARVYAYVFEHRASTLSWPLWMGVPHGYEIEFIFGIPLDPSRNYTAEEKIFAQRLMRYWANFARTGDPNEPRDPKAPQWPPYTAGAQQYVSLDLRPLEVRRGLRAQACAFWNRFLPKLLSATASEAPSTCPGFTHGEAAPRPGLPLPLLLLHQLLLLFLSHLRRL

[11] = male, guinea pig, in vivo
[12] = guinea pig, in vivo; for percentage of the administered dose in the brain / LogBB / brain concentration / plasma concentration: male; for LogBB / brain concentration / plasma concentration: iv

Sequence of MDR1 (P-gp) (P08183 whole entry): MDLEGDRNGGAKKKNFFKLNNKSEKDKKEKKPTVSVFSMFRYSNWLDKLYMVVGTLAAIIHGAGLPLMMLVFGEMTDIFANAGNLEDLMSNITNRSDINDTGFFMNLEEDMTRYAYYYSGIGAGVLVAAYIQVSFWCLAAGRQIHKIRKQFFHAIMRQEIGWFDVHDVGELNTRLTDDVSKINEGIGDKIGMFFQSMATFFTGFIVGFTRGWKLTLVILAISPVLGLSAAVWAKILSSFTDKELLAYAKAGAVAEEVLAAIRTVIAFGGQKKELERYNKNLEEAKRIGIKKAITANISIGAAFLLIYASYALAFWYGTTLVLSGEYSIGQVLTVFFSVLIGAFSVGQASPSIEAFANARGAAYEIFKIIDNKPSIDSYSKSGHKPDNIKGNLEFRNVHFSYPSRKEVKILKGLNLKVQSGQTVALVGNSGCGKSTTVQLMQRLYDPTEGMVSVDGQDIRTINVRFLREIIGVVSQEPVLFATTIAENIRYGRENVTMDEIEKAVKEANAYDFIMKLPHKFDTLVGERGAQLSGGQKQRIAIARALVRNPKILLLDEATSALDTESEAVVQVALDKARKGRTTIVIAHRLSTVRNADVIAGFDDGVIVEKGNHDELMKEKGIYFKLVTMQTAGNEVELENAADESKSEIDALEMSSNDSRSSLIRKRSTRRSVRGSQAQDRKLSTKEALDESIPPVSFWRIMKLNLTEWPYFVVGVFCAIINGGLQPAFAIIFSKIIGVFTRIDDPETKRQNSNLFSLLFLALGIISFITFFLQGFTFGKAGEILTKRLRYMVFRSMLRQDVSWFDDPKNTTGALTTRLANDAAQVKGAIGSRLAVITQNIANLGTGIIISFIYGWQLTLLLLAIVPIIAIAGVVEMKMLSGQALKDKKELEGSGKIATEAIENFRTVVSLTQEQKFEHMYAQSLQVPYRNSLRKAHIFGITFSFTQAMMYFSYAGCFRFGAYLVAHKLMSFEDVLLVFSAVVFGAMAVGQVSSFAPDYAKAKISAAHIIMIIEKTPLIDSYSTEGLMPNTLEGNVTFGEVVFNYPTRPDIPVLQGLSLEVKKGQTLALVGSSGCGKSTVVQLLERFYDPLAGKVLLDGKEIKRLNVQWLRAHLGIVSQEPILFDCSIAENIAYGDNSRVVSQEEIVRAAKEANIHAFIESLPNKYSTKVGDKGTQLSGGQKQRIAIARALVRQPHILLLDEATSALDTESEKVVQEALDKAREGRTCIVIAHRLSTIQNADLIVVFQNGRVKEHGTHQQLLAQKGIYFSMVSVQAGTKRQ

For `C[C@@H](CN1CCCc2ccccc2C1)NC(=O)/C=N/O` [LLNL-02], the PAMPA permeability [1] was “high permeability through the BBB; also recorded: high permeability comparable to that of the highly permeable positive control compound, diazepam; also recorded: elevated permeability relative to other selected compounds; also recorded: superior permeation relative to LLNL-03”, the half-life ([2]; 1 mg/kg, T½ dist.) was 23.4 min and the half-life ([2]; 5 mg/kg, T½ dist.) was 24 min. For the same compound, the AUC(0-inf) ([2]; 10 mg/kg) was 73400 ng·h/mL, the AUC0-t ([2]; 10 mg/kg, AUC0-t) was 28400 ng·h/mL and the half-life ([2]; 10 mg/kg, T½ dist.) was 15 min. For the same compound, the half-life ([2]; 10 mg/kg, T½ elim.) was 606 min, the Vd ([2]; 10 mg/kg, Vd (area)) was 6.32 L/kg and the half-life ([2]; 20 mg/kg, T½ dist.) was 23.4 min. It also gave a Vd ([2]; 20 mg/kg, apparent volume of distribution (Vd)) of 3.75 to 6.32 L/kg, a half-life ([2]; 20 mg/kg, mean apparent distribution half-life (t1/2α)) of 15 to 24 min and a half-life ([2]; 20 mg/kg, terminal half-life (t1/2 β)) of 606 to 1130 min. For the same compound, the clearance ([2]; 20 mg/kg, total clearance from plasma (CL)) was 2.27 to 5.19 mL/min/kg, the “MDR1 efflux substrate status from net flux ratio” value [3] was “may be a moderate efflux substrate; also recorded: moderate efflux substate” and the IC50 [4] was > 10 µM. For the same compound, the IC50 [5] was > 10 µM, the half-life [6] was > 60 min and the microsomal CLint [6] was < 23 µL/min/mg. The Cmax [7] was 1420 to 10000 ng/g, the “human plasma stability (percent remaining after 1 hour)” value ([8]; human plasma, 1 hour at 37° C.) was “over 90%” and the “degradation in human plasma” value ([8]; one hour) was < 10%. The “concentration not toxic to the hERG channel” value [9] was > 10 µM, the “fraction of AChE reactivated at 30 minutes, methylated versus des-methyl analog” value [10] was “significantly lower reactivation relative to the des-methyl counterpart” and the “reactivation of adducted AChE relative to the 2-PAM standard of care” value [10] was “approximately 40%”. For the same compound, the “increase in mean AUC0-t” value [11] was 2.5 fold, the AUC0-t ([11]; iv, 10 mg/kg) was 28.48 µg·h/mL and the T½ elim. ([11]; iv, 10 mg/kg) was 10.11 h. For the same compound, the “Vd (area)” value ([11]; iv, 10 mg/kg) was 6322.68 mL/kg, the “time of Cmax in the brain” value [12] was 5 min and the “percentage of the administered dose in the brain” value (shortened to “percentage”) [12] was 0.3-0.7%. The “percentage” value ([12]; 1 mg/kg) was 0.3%, the “percentage” value ([12]; 5 mg/kg) was 0.3% and the “percentage” value ([12]; 20 mg/kg) was 0.7%. It also gave a LogBB ([12]; 1 mg/kg) of −0.879, a brain concentration ([12]; 1 mg/kg) of 0.191 µg/g and a plasma concentration ([12]; 1 mg/kg) of 1.443 µg/g. For the same compound, the LogBB ([12]; 5 mg/kg) was −0.649, the brain concentration ([12]; 5 mg/kg) was 1.421 µg/g and the plasma concentration ([12]; 5 mg/kg) was 6.352 µg/g. For the same compound, the LogBB ([12]; 10 mg/kg) was −0.311, the brain concentration ([12]; 10 mg/kg) was 5.269 µg/g and the plasma concentration ([12]; 10 mg/kg) was 10.790 µg/g. It also gave a LogBB ([12]; 20 mg/kg) of −0.276, a brain concentration ([12]; 20 mg/kg) of 10.048 µg/g and a plasma concentration ([12]; 20 mg/kg) of 19.009 µg/g.
